In a melting point compilation (Tetko et al.; mined from patent text by program, amines drawn as free bases though some values may be those of a salt):

SMILES | melting point
O=C(O)Cc1c(C(=O)c2cc(CO)ccn2)[nH]c2cc(Cl)ccc12 | 210 to 212 °C
CCOC(=O)CC=Cc1ccc2ccccc2c1O | 83 to 84 °C
Cc1ccc(S(=O)(=O)NC(=O)C2C(=O)CC(C(C)(C)C)CC2=O)cc1 (stereo unspecified) | 162 to 163 °C
Cc1[nH]c(=S)[nH]c(=O)c1CCc1ccccc1 | 210 to 214 °C
CCCC(CC)(CC)C(=O)O[C@H]1C[C@H](O)C=C2C=C[C@H](C)[C@H](CC[C@@H]3C[C@@H](O)CC(=O)O3)[C@H]21 | 130 to 131 °C
CCOC(=O)CNC(=O)C(C)(C(C)C)C(C)C | 74.5 to 75.5 °C
CCOC(=O)c1cnc2ccc(OC)nc2c1Cl | 98 to 100 °C
CCN(CC)C(=O)CCc1nc(-c2cccs2)nc2ccccc12 | 106 °C
Cc1ccc(N(c2ccc(C)cc2)c2ccc(-c3ccc(N(c4ccc(C)cc4)c4ccc(C)cc4)cc3)cc2)cc1 | 215 to 216 °C
CNc1cc(SCC(C)O)c(N)cc1[N+](=O)[O-] (stereo unspecified) | 152 °C
C=CCNc1ccc(C(=O)OC)cc1 | 71 to 73 °C
O=S1CCN(c2nc(N3CCNCC3)cc3ccc(Cl)cc23)CC1 | 209 to 211 °C
Cc1nc(C)c(Cl)c(NCc2nccc(N(C)CCN3CCc4ccccc4C3)c2Cl)n1 | 81 to 93 °C
CCCCN1CCC(NS(=O)(=O)c2ccc(NC(C)=O)cc2)CC1 | 174 to 175 °C
O=C(O)c1ccc(OCCCO/N=C/c2cc(C(F)(F)F)cc(C(F)(F)F)c2)cc1O | 182 to 183 °C
Nc1ncc(-c2noc(-c3cnn4c(C(F)(F)F)cc(-c5ccc(Cl)cc5)nc34)n2)cn1 | 268 °C
CC(=O)Nc1ccc(S(=O)(=O)CCCCNS(=O)(=O)c2ccc(C)cc2)cc1 | 93 to 95 °C
CCCNC(=O)C1(CCCCC#N)c2ccccc2-c2ccccc21 | 102 to 104 °C
Cc1ccc(C2NC(C(=O)O)C(C)(C)S2)cc1 (stereo unspecified) | 89 to 90 °C
CCCOc1c(OC)c(OC)cc(C)c1C(=O)c1c(Cl)cccc1Cl | 143 °C
COc1cc(Nc2c(C#N)cnc3cc(-c4ccc(CN5CCOCC5)cc4)sc23)c(Cl)cc1Cl | 244 to 245 °C
Cc1ccccc1CN1CCN(C)CC1C1=NCCN1 (stereo unspecified) | 156 to 158 °C
O=C1NCCN=C1c1ccc(F)cc1 | 118 to 120 °C

SMILES | melting point
Cc1ccc2c(c1)Sc1ccc(F)cc1C(N1CCN(CCN3CCOC3=O)CC1)C2 (stereo unspecified) | 147 to 149 °C
COc1cccc(NC(=O)NC(C(C)C)C2CCN(Cc3ccc(Cl)c(Cl)c3)CC2)c1 (racemic) | 161 to 162 °C
O=C(CCCCN1CCC(Cc2ccccc2)CC1)c1ccc2c(c1)-c1ccc(C(=O)CCCCN3CCC(Cc4ccccc4)CC3)c3cccc-2c13 | 126 to 128 °C
C=CCOC(=O)[C@@H]1CC[C@@H]2CN1C(=O)N2OCc1ccccc1 | 60 to 62 °C
CSCCC(NC(C)=O)C(=O)N1CC1C#N (stereo unspecified) | 86 to 88 °C
CCCCc1c(C(=O)O)sc2ccc([N+](=O)[O-])cc12 | 238 to 240 °C
CCCCC(=O)Nc1ccc(N)cc1 | 81 to 83 °C
COC(=O)Cc1ccc2c(c1)C(C)(C)CCC2(C)C | 83 to 85 °C
Cc1cccc(-n2c(CF)nc3ccc([N+](=O)[O-])cc3c2=O)c1C | 178 to 180 °C
Cn1cc(-c2cc3nccnc3[nH]2)c2cc(C(=O)NC(C)(C)CO)ccc21 | 210 to 214 °C
N#Cc1cc(O)cc(OCCc2ccccn2)c1N | 149 to 150 °C
Cc1cc(SC(C)C)c(NC(=O)CCCCCCSc2nc3ccccc3[nH]2)c(SC(C)C)n1 | 118 to 121 °C
[N-]=[N+]=NC[C@H]1CN(c2ccc(N3C[C@@H]4C[C@H]3CO4)c(F)c2)C(=O)O1 | 101 to 102 °C
CN(C)CCCn1c(-c2ccc(Br)cc2)cc2c1CCCCC2 | 69 to 70 °C
CSc1nc(-c2cc(C(C)(C)C)c(O)c(C(C)(C)C)c2)cs1 | 92 to 93 °C
COc1cc2c(cc1[N+](=O)[O-])-c1c(-c3cccs3)c3c(n1CC2)C(=O)N(C(C)(C)C)CC3 | 226 to 227 °C
O=C1Nc2cc(Cl)ccc2C(=O)C1c1ccsc1 (stereo unspecified) | 341 to 344 °C
O=C1O[C@@H](Cn2ccnn2)CN1c1ccc(-c2ccc(C3=NOC(CS(=O)(=O)CCO)C3)nc2)c(F)c1 (stereo partly specified) | 210 °C
COc1cc(O)c2c(c1O)CC(C)=C(C)C2 | 200 to 201 °C
O=[N+]([O-])c1ccc(-c2oncc2CCCO)cc1 | 132 to 133 °C
CCC1(CCCCN2CCN(c3cccc(Cl)c3)CC2)C(=O)Nc2ccc(Cl)cc21 (stereo unspecified) | 139 to 142 °C
Fc1ccc(F)c(C(Sc2ccc(Cl)cc2)c2cc(Cl)ncc2Cl)c1 (stereo unspecified) | 128 to 129 °C
O=C(O)CCNC(=O)CCNC(=O)N1CCC2(CCNCC2)CC1 | 105 to 110 °C

SMILES | melting point
O=C1NC2CC3CC(C2)CC1C3 | > 270 °C
CCCc1nc2c(N)nc3cc(-c4cccc(C(=O)N5CCCC5)c4)ccc3c2s1 | 177 to 180 °C
OC1CCCC(c2ccccc2)O1 (stereo unspecified) | 64.5 to 71 °C
CCN(CC)CCNC(=O)c1cc(Cl)c(N)cc1OCCCN | 119 to 121 °C
COc1cc(NC(=O)CCCCCN2CCNCC2)c2nccc(C)c2c1 | 122 to 124 °C
Nc1nc2ncnc(NCc3ccco3)c2[nH]1 | 128 to 130 °C
C=CCSc1ccc(Oc2cccc(C)c2)nn1 | 48 to 50 °C
Cc1ccc(F)cc1C1CC(=O)c2c(C)cnnc2C1 (stereo unspecified) | 127 to 128 °C
CCOC(=O)CNC(=S)Cc1cnc(C)c2c1COC(C)(C)O2 | 156 to 158 °C
CC(C)Nc1cccnc1N1CCN(C(=O)c2ccc(C(=O)N[C@H](CO)CC3CCCCC3)cc2)CC1 | 139 to 140 °C
COc1ccc(CNc2nc(CCCCCCC(=O)O)nc3sc(Cl)cc23)cc1Cl | 137 °C
OC(CC1CCN(CC2CC2)CC1)(c1ccc(F)cc1)c1ccc(F)cc1 | 119 to 121 °C
CCOC(=O)c1cc2c(Cl)ccc(N(C)S(=O)(=O)c3cccs3)c2n1COC | 137 to 138 °C
CCOc1c(CS(=O)(=O)C2=NOC(C)(CCl)C2)c(C(F)(F)F)nn1CC (stereo unspecified) | 67 to 69 °C
N=C1NCCN1Cc1ccccc1 | 165 to 167 °C
Cc1cc2c(-c3cccc(C=O)c3)c(CC(=O)O)c(=O)oc2cc1Cl | 230 to 232 °C
Cc1ccc(C(=O)c2cc(CN(C)C)c(O)c(C(C)(C)C)c2)s1 | 119 to 120 °C
CC(C)(C)OC(=O)N1CCCC(Nc2cc(Cl)n[nH]c2=O)C1 (stereo unspecified) | 195 to 196 °C
CCCCC(=O)Nc1ccc(C(=O)OC)cc1[N+](=O)[O-] | 106 to 107 °C
COc1cc(OC)c(S(C)(=O)=O)cc1C(=O)NCC1CCCN1C1CCCC1 (stereo unspecified) | 198 °C
COC(=O)c1ccc(-c2csc(-c3ccc4c(c3)C(C)(C)CCC4(C)C)c2)cc1 | 108 to 110 °C
CNc1ncnc2c1c(-c1ccc([N+](=O)[O-])o1)nn2C | 280 °C

Now from value to compound:

melting point | SMILES
156 to 157 °C | Nc1ccccc1C(=O)N1Cc2ccccc2C(=O)N1
140 to 142 °C | C[C@]1(COc2ccc(N3CCC(COc4ccc(CCl)cc4)CC3)cc2)Cn2cc([N+](=O)[O-])nc2O1
184 to 186 °C | COc1ccc(C(=O)Nc2ccccc2)cc1NCc1ccc(C)cc1
89 °C | C[C@H]1CC(=O)N1c1ccc(C(=O)OCc2ccccc2)cc1
82.5 °C | O=Cc1ccc(OCCCc2ccccc2)c([N+](=O)[O-])c1
160 °C | O=C(c1ccccc1)c1cccc2c1CCC2C(=O)NO (stereo unspecified)
122 °C | CCOC(=O)C1=C(C)NN=C(CC)C1c1cccc2ccccc12 (stereo unspecified)
251 to 252 °C | O=S1(=O)CCN2C=CC=C(c3ccc(Oc4ccccc4)cc3)C2=N1
103 to 104 °C | CC(O)(c1ccccc1)c1cc(Oc2ccc(Cl)cc2)ccc1O (stereo unspecified)
73 to 77 °C | C=CCOC(=O)/C=C/c1c[nH]c2ccc(OCc3ccccc3)cc12
55 to 56 °C | COc1ccc(C(=O)OC2CCN(Cc3ccccc3)CC2)cc1
89 to 90 °C | O=C1CCCN1C(=O)Oc1ccc(F)cc1
120 to 122 °C | CSc1ccc2c(C3CCN(C(C)=O)CC3)nn(-c3ccccc3)c2c1
197 to 198 °C | CCN(CC)c1ccc2nc3c4ccccc4c(=Nc4nc5ccc(OC)cc5s4)cc-3oc2c1
220 °C | COc1cc(OC)c(-c2cc3ccccc3n2C)cc1C=CC(=O)c1ccc(S(=O)(=O)Nc2cc(C)on2)cc1
90 to 92 °C | O=C1c2ccccc2C(=O)N1CCCCCCc1cccnc1
219 to 222 °C | O=C(c1ccccn1)c1cc2ccncc2[nH]1

melting point | SMILES
262 to 264 °C | CN1c2ccccc2-c2nc3ccc(/C=C/C#N)cc3c3cccc1c23
117 to 118 °C | CCOC(=O)c1nc(-c2ccc(Cl)cc2Cl)c(-c2ccc(Cl)cc2)s1
147 °C | O=C1NCC(CCOC(=O)c2ccccc2)(c2ccc(F)c(F)c2)O1 (stereo unspecified)
172 to 173 °C | COc1ccc(COC(=O)C2=C3[C@@H](C)[C@H](C)[C@@H]3S[C@@H]3[C@H](NC(=O)Cc4ccccc4)C(=O)N23)cc1
158 to 160 °C | COc1ccc(C(C)(C)C)cc1NC(=S)Nc1cccc2ccccc12
75 to 79 °C | COC(=O)NC(=S)Nc1cc(C(=O)c2ccccc2)ccc1NCc1ccccc1
41 to 42 °C | CSc1nc(N)n(-c2ccccc2Oc2ccc(C)cc2O)n1
113 °C | N#CCCOC(=O)NC(=O)C(c1ccccc1)c1ccccc1
222 °C | FC(F)c1cc(-c2ccc(C(F)(F)F)cc2)nc2c(-c3ccncc3)cnn12
168 to 169 °C | COC(=O)C(Cc1ccccc1)NC(=S)Nc1nc2ccccc2s1 (racemic)
150 °C | C=CCn1c2c(c3cc(OCc4ccc5ccccc5n4)ccc31)CCCC2CC(=O)O (stereo unspecified)
141 to 142 °C | CSCCNC(=O)c1cccc(-c2ccc3c(c2)C(Oc2ccc(Cl)cc2Cl)CC3)c1 (stereo unspecified)
188 to 189 °C | N=C(Nc1cc(NC(=O)/C=C/c2ccccc2C(F)(F)F)ccc1Cl)c1ccccc1
100 to 102 °C | CONC(=O)c1ccccc1OCc1ccc(Cl)cc1Cl
115 to 118 °C | O=C(c1ccc(F)cc1)N1CCCC(F)(c2nc(-c3ccc[nH]3)no2)C1 (stereo unspecified)
174 to 176 °C | O=C1CN(Cc2ccccc2)c2cc(Br)ccc2N1
